According to patent US11242344B2, “(4-hydroxypyrrolidin-2-yl)-heterocyclic compounds and methods of use thereof” (Genentech, Inc., priority 2017, dated 2022):

Experiments:
[1] = target: VHL co-expressed with Elongins B and C (Homo sapiens (Human), UniProt P40337); assay: Surface Plasmon Resonance Assay; format: binding; conditions: SPR measured VHL affinity; geometric mean where more than one measurement
Outline: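 Binding kinetics by SPR at 20 °C: compound concentration series run from low to high at 80 μL/min over VHL–Elongin B/C complex, immobilized via avidin tag on SA chip. Buffer was HEPES pH 7.2 with 150 mM NaCl, TCEP, Tween 20, PEG3350 and 2% DMSO; association/dissociation times adjusted per compound.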

[2] = target: NanoLuc VHL fusion protein (Homo sapiens (Human), UniProt P40337); assay: VHL HEK-293 BRET Assay (NanoBRET Target Engagement); format: cell-based; conditions: geometric mean where more than one measurement
NanoLuc VHL fusion protein, sequence (P40337 whole entry, looked up, the tested form may be a part): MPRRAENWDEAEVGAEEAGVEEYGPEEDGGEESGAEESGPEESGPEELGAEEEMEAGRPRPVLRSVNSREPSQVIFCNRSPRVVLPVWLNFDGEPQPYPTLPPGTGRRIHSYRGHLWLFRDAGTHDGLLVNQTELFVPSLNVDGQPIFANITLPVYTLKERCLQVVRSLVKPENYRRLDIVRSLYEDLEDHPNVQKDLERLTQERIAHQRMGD
NanoLuc VHL fusion protein, sequence (Q15370 whole entry partner, looked up, the tested form may be a part): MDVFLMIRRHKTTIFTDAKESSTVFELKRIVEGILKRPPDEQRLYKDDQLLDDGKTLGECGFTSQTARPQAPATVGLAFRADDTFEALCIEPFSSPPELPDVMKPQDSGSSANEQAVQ
NanoLuc VHL fusion protein, sequence (Q15369 whole entry partner, looked up, the tested form may be a part): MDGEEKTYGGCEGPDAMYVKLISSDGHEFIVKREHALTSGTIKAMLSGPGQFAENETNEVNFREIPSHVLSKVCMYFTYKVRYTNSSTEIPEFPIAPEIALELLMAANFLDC
Outline: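 HEK293 cells stably expressing NanoLuc-VHL, 2 h with compound titration and 1 uM final tracer, then Nano-Glo substrate plus extracellular NanoLuc inhibitor. BRET ratio 610/460 nm, background-corrected with no-tracer wells, normalised to DMSO and 10 uM unlabeled VHL antagonist controls; IC50 by four-parameter fit.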

VHL Elongin B/C complex = VHL Elongin B/C complex (Homo sapiens (Human), UniProt P40337); assay: Fluorescence Polarization (FP) VHL Binding Assay; conditions: VHL binding, FP assay; geometric mean where more than one measurement
VHL Elongin B/C complex, sequence (P40337 whole entry, looked up): as the sequence (P40337 whole entry, looked up, the tested form may be a part) above
VHL Elongin B/C complex, sequence (Q15370 whole entry partner, looked up): as the sequence (Q15370 whole entry partner, looked up, the tested form may be a part) above
VHL Elongin B/C complex, sequence (Q15369 whole entry partner, looked up): as the sequence (Q15369 whole entry partner, looked up, the tested form may be a part) above
Outline: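 Readout is polarization of a TAMRA-coupled VHL ligand (1.67 nM final) displaced from the VHL(E55-D213)/Elongin B/C complex (2.64 nM final) after 1 h incubation at room temperature in pH 8.0 Tris buffer with 1% DMSO. Data normalized to no-VHL and compound-free controls, with compound fluorescence subtracted, and fitted by four-parameter curve for IC50.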

VHL co-expressed with Elongins B and C, sequence (P40337 whole entry, looked up): as the sequence (P40337 whole entry, looked up, the tested form may be a part) above
VHL co-expressed with Elongins B and C, sequence (Q15370 whole entry partner, looked up): as the sequence (Q15370 whole entry partner, looked up, the tested form may be a part) above
VHL co-expressed with Elongins B and C, sequence (Q15369 whole entry partner, looked up): as the sequence (Q15369 whole entry partner, looked up, the tested form may be a part) above

| Compound | Kd [1] [µM] | IC50 [2] [µM] | IC50 (VHL Elongin B/C complex) [µM] |
| --- | --- | --- | --- |
| Cc1cc(C(C(=O)N2C[C@H](O)C[C@H]2C2=NN(c3ccccc3)C(C)(C)N2)C(C)C)on1 (single isomer, unassigned) [Example 135.1] | ≥ 150 | 100 | ≥ 400 |
| Cc1cc([C@@H](C(=O)N2C[C@H](O)C[C@H]2C2=NOC(c3ccc(Br)cc3)(C(F)(F)F)N2)C(C)C)on1 (single isomer, unassigned) [Example 133.1] | ≥ 150 | 100 | ≥ 400 |
| Cc1cc([C@H](C(=O)N2C[C@H](O)C[C@H]2C2=NOC(C)(c3ccc(-c4scnc4C)cc3)N2)C(C)C)on1 (single isomer, unassigned) [Example 129.4] | 0.0438 | 0.239 | 0.202 |
| CC(=O)N1CCCCC1C(=O)N1C[C@H](O)CC1C1=NC(=O)[C@](C)(c2ccc(-c3scnc3C)cc2)N1 (single isomer, unassigned) [Example 124.4] | ≥ 150 | 100 | ≥ 400 |
| Cc1cc(C(C(=O)N2C[C@H](O)C[C@H]2C2=NN(CC(F)(F)F)C(C)(C)N2)C(C)C)on1 (single isomer, unassigned) [Example 134.1] | ≥ 150 | 100 | ≥ 400 |
| Cc1cc([C@H](C(=O)N2C[C@H](O)C[C@H]2C2=NOC3(CCc4ccccc43)N2)C(C)C)on1 (single isomer, unassigned) [Example 130.4] | 4.24 | 34.5 | 17.5 |
| Cc1cc(C(C(=O)N2C[C@H](O)CC2C2=NC(=O)[C@](C)(c3ccc(-c4scnc4C)cc3)N2)C(C)C)sn1 (single isomer, unassigned) [Example 119.2] | 150 | 100 | ≥ 400 |
| Cc1cc(C(C(=O)N2C[C@H](O)C[C@H]2C2=NN(c3ccccc3)C(C)(C)N2)C(C)C)on1 (single isomer, unassigned) [Example 135.2] | 6.55 | 5.67 | 9.32 |
| Cc1noc(C(C(=O)N2C[C@H](O)CC2C2=NC(=O)[C@](C)(c3ccc(-c4scnc4C)cc3)N2)C(C)C)n1 (single isomer, unassigned) [Example 117.3] | 217 | 100 | ≥ 400 |
| Cc1cc([C@H](C(=O)N2C[C@H](O)C[C@H]2C2=NO[C@@](c3ccccc3)(C(F)(F)F)N2)C(C)C)on1 (mixture of isomers) [Example 114.1, (2S)-1-((2S,4R)-4-Hydroxy-2-(5-phenyl-5-(trifluoromethyl)-4,5-dihydro-1,2,4-oxadiazol-3-yl)pyrrolidin-1-yl)-3-methyl-2-(3-methylisoxazol-5-yl)butan-1-one and (2R)-1-((2S,4R)-4-Hydroxy-2-(5-phenyl-5-(trifluoromethyl)-4,5-dihydro-1,2,4-oxadiazol-3-yl)pyrrolidin-1-yl)-3-methyl-2-(3-methylisoxazol-5-yl)butan-1-one] | 150 | 100 | 400 |
| Cc1cc([C@@H](C(=O)N2C[C@H](O)C[C@H]2C2=NOC(c3ccccc3)(c3ccccc3)N2)C(C)C)on1 [Example 132.1, (S)-1-((2S,4R)-2-(5,5-diphenyl-4,5-dihydro-1,2,4-oxadiazol-3-yl)-4-hydroxypyrrolidin-1-yl)-3-methyl-2-(3-methylisoxazol-5-yl)butan-1-one] | ≥ 150 | 100 | ≥ 400 |
| CC(=O)N1CCC[C@H]1C(=O)N1C[C@H](O)CC1C1=NC(=O)[C@](C)(c2ccc(-c3scnc3C)cc2)N1 (single isomer, unassigned) [Example 121.1] | 29.2 | 100 | 65.5 |
| CC/C(=C(\c1ccc(O)cc1)c1ccc(OCCN(C)C(=O)CCCOCCOc2cc(C(C(=O)N3C[C@H](O)CC3C3=NC(=O)[C@](C)(c4ccc(-c5scnc5C)cc4)N3)C(C)C)on2)cc1)c1ccccc1 (single isomer, unassigned) [Example 1003.3] | 67.1 | 51.6 | 30.4 |
| Cc1cc([C@@H](C(=O)N2C[C@H](O)C[C@H]2C2=NO[C@](C)(c3ccc(Br)cc3)N2)C(C)C)on1 (mixture of isomers) [Example 113.3, (2S)-1-((2S,4R)-2-(5-(4-Bromophenyl)-5-methyl-4,5-dihydro-1,2,4-oxadiazol-3-yl)-4-hydroxypyrrolidin-1-yl)-3-methyl-2-(3-methylisoxazol-5-yl)butan-1-one and (2R)-1-((2S,4R)-2-(5-(4-Bromophenyl)-5-methyl-4,5-dihydro-1,2,4-oxadiazol-3-yl)-4-hydroxypyrrolidin-1-yl)-3-methyl-2-(3-methylisoxazol-5-yl)butan-1-one] | 90.8 | 100 | 400 |
| Cc1cc([C@H](C(=O)N2C[C@H](O)C[C@H]2C2=NO[C@](c3ccccc3)(C(F)(F)F)N2)C(C)C)on1 (mixture of isomers) [Example 114.2, (2S)-1-((2S,4R)-4-Hydroxy-2-(5-phenyl-5-(trifluoromethyl)-4,5-dihydro-1,2,4-oxadiazol-3-yl)pyrrolidin-1-yl)-3-methyl-2-(3-methylisoxazol-5-yl)butan-1-one and (2R)-1-((2S,4R)-4-Hydroxy-2-(5-phenyl-5-(trifluoromethyl)-4,5-dihydro-1,2,4-oxadiazol-3-yl)pyrrolidin-1-yl)-3-methyl-2-(3-methylisoxazol-5-yl)butan-1-one] | 150 | 100 | 400 |
| Cc1cc(C(C(=O)N2C[C@H](O)CC2C2=NC(=O)[C@](C)(c3ccc(-c4scnc4C)cc3)N2)C(C)C)sn1 (single isomer, unassigned) [Example 119.4] | 150 | 100 | ≥ 400 |
| Cc1cc([C@H](C(=O)N2C[C@H](O)C[C@H]2C2=NOC(c3ccccc3)(c3ccccc3)N2)C(C)C)on1 [Example 132.2, (R)-1-((2S,4R)-2-(5,5-diphenyl-4,5-dihydro-1,2,4-oxadiazol-3-yl)-4-hydroxypyrrolidin-1-yl)-3-methyl-2-(3-methylisoxazol-5-yl)butan-1-one] | 12.6 | 39.4 | 45.7 |
| Cc1ncsc1-c1ccc([C@]2(C)NC(C3C[C@@H](O)CN3C(=O)C(c3cc(O)no3)C(C)C)=NC2=O)cc1 (single isomer, unassigned) [Example 116.4] | 5.3 | 100 | 35.4 |
| Cc1ncsc1-c1ccc([C@]2(C)NC(C3C[C@@H](O)CN3C(=O)[C@H](C(C)C)N3Cc4ccccc4C3=O)=NC2=O)cc1 (single isomer, unassigned) [Example 123.1] | 55.6 | 100 | ≥ 400 |
| Cc1cc([C@H](C(=O)N2C[C@H](O)C[C@H]2C2=NOC(C)(c3ccc(-c4scnc4C)cc3)N2)C(C)C)on1 (single isomer, unassigned) [Example 129.3] | 0.0293 | 0.304 | 0.418 |
| Cc1ncsc1-c1ccc([C@]2(C)NC(C3C[C@@H](O)CN3C(=O)[C@@H]3CCCCN3S(C)(=O)=O)=NC2=O)cc1 (single isomer, unassigned) [Example 122.2] | 6.83 | 39 | 16.7 |
| Cc1cc([C@H](C(=O)N2C[C@H](O)C[C@H]2C2=NOC3(CCCC3)N2)C(C)C)on1 [Example 127.2, (R)-1-((2S,4R)-4-hydroxy-2-(1-oxa-2,4-diazaspiro[4.4]non-2-en-3-yl)pyrrolidin-1-yl)-3-methyl-2-(3-methylisoxazol-5-yl)butan-1-one] | 16.4 | 73.2 | 50.8 |
| Cc1cc([C@H](C(=O)N2C[C@H](O)C[C@H]2C2=NOC(c3ccc(Br)cc3)(C(F)(F)F)N2)C(C)C)on1 (single isomer, unassigned) [Example 133.4] | 17.4 | 52.3 | 54.9 |
| Cc1cc([C@H](C(=O)N2C[C@H](O)C[C@H]2C2=NO[C@@](c3ccccc3)(C(F)(F)F)N2)C(C)C)on1 (mixture of isomers) [Example 114.3, (2S)-1-((2S,4R)-4-Hydroxy-2-(5-phenyl-5-(trifluoromethyl)-4,5-dihydro-1,2,4-oxadiazol-3-yl)pyrrolidin-1-yl)-3-methyl-2-(3-methylisoxazol-5-yl)butan-1-one and (2R)-1-((2S,4R)-4-Hydroxy-2-(5-phenyl-5-(trifluoromethyl)-4,5-dihydro-1,2,4-oxadiazol-3-yl)pyrrolidin-1-yl)-3-methyl-2-(3-methylisoxazol-5-yl)butan-1-one] | 8.8 | 48.8 | 47 |
| CC/C(=C(\c1ccc(O)cc1)c1ccc(OCCN(C)C(=O)CCCOCCOc2cc(C(C(=O)N3C[C@H](O)CC3C3=NC(=O)[C@](C)(c4ccc(-c5scnc5C)cc4)N3)C(C)C)on2)cc1)c1ccccc1 (single isomer, unassigned) [Example 1003.4] | 67.1 | ≥ 100 | ≥ 100 |
| Cc1ncsc1-c1ccc([C@]2(C)NC(C3C[C@@H](O)CN3C(=O)C3N(S(C)(=O)=O)CCC3(C)C)=NC2=O)cc1 (single isomer, unassigned) [Example 125.4] | ≥ 150 | 100 | ≥ 400 |
